These results are taken from article PMC7495481, “Sequence specificity analysis of the SETD2 protein lysine methyltransferase and discovery of a SETD2 super-substrate” (Communications Biology, 2020).

“And” between values parts separate entries of the source, which are not always exact repeats. Equal values may be shown once.

This assay deals with T1, SETD2 (Homo sapiens, UniProt Q9BYW2).
T1 construct: SETD2 catalytic SET domain (amino acids 1347–1711, UniProt No: Q9BYW2); made in house; host or cells: E. coli
T1 sequence (Q9BYW2 1347-1711): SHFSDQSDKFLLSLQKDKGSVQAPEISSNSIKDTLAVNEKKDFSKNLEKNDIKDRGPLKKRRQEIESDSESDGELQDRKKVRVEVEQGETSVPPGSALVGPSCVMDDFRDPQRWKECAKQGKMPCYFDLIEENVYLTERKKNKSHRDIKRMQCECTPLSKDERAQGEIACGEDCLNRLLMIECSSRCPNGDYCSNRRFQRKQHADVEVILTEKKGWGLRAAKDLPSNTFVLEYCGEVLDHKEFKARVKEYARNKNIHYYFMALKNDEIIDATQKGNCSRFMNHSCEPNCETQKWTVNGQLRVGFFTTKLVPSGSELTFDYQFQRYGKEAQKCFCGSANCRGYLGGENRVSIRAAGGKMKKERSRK
Briefly: Peptide SPOT array target lysine methylation of selected non-histone peptides (Fig. 3b). The following applies: Exp1–Exp3, 3–6 µM SETD2, 0.76 µM AdoMet, 60 min, pH 9. The class given is biochemical. An excerpt:
However, we could identify 166 possible targets, which contain partial matches to the substrate specificity profile. The possible methylation of these 166 putative substrates was investigated at the peptide level. For this, fifteen amino acid long peptides containing the sequence of the non-histone targets surrounding the predicted target lysine were synthesized on a membrane. The H3K36 (29–43) peptide (spots A1, I9), the super-substrate peptide (spots A3, I11) and the corresponding lysine to alanine mutation peptides (spot A2, I10, and A4, I12) were included as positive and negative controls (Fig. 3a, Supplementary Fig. 4 and Supplementary Table 2). The methylation reactions and the detection of the methylation signals were performed in duplicates as described above. We observed that all of the investigated peptides were more weakly methylated than the super-substrate peptide. […] In the next step, 20 of the peptides were selected for further investigation based on the methylation intensity and the known functions of the proteins to confirm the methylation at the predicted target site. The peptides were synthesized on another membrane, now including the target lysine to alanine mutation control peptides in each case. The methylation reactions and the detection of the signal were conducted as described above (Fig. 3b, Supplementary Fig. 5 and Supplementary Table 3).
Fig. 3 Identification of non-histone substrates of SETD2. a Candidate non-histone peptide substrates were identified in the human proteome based on the SETD2 super-substrate specificity profile. The peptides were synthesized on a peptide SPOT array (Supplementary Table 2) and methylated by SETD2. As controls, the H3K36, H3K36A, ssK36 and ssK36A peptides were included on spots A1–A4 and I9–I12. The autoradiography image is an example of the obtained results. […] The quantification of the data of two experiments is shown in Supplementary Fig. 4. b Analysis of target lysine methylation of selected non-histone substrate peptides. Peptide SPOT arrays were synthesized containing the non-histone peptide substrates identified in panel A in addition to the lysine to alanine mutations presented on the array as every second spot (Supplementary Table 3). As controls, the H3K36, H3K36A, ssK36, and ssK36A mutant peptides were included on spot A1–A4 and C5–C8. The autoradiography image is an example of the obtained results. The quantification of the data of three experiments is shown in Supplementary Fig. 5. Peptides selected for furhter analysis are highlighted by blue circles. c Protein methylation of FBN1 and confirmation of the target lysine methylation. Both wild type (WT) and mutant (K666R) FBN1 were purified and equal amounts were methylated by SETD2 (2 µM). […] The size of FBN1 is indicated by an asterisk.
Peptide arrays containing fifteen amino acid long peptides were synthesized using the SPOT synthesis method[48] with an Autospot peptide array synthesizer (Intavis AG, Köln, Germany). After synthesis, the obtained membranes were pre-incubated in methylation buffer (20 mM Tris/HCl pH 9, 0.01% Triton X-100, 10 mM DTT, 1.5 mM MgCl2) for 5 min on a shaker. Thereafter, the membranes were incubated in methylation buffer supplemented with 0.76 µM radioactively labeled AdoMet (PerkinElmer) and 3–6 µM SETD2 enzyme for 60 min on a shaker. After methylation, the membranes were washed 5 times for 5 min in wash buffer (100 mM NH4HCO3, 1% SDS) and incubated in amplify NAMP100V (GE Healthcare) for 5 min. This was followed by the exposure of the membranes to a hyperfilm^TM high performance autoradiography (GE Healthcare) film at −80 °C in the dark. The films were developed with an Optimax Typ TR machine after different exposue times. For quantification the signal intensities were measured with the Phoretix^TM software and analyzed with Microsoft Excel.

With “AGARGYLATSLCVLG [DYSF K to A, target lysine to alanine control]”, the “Relative methylation signal, Average” value is on record as 0.01828.
With “AGARGYLKTSLCVLG [DYSF, Dysferlin peptide, target lysine 338]”, the “Relative methylation signal, Average” value was found to be 0.2902.
To “APRFGGVARPNRYRP [DS K to A, super-substrate K36A peptide, negative control]” belongs 0.1136 and 0.1005; to “ATFLGYFASGLKYKK [GELS K to A, target lysine to alanine control]”, 0.4943; to “ATFLGYFKSGLKYKK [GELS, Gelsolin peptide, target lysine 162]”, 0.5433.
Consider “CRKLGGVAKSATFRS [TPD55 K to A, target lysine to alanine control]”, for which the “Relative methylation signal, Average” value was 0.6652.
As for “CRKLGGVKKSATFRS [TPD55, Tumor protein D55 peptide, target lysine 112]”, the “Relative methylation signal, Average” value worked out at 0.7056.
Take “DDLYGAIAKLCCVQS [PIWL2 K to A, target lysine to alanine control]”: the “Relative methylation signal, Average” value is 0.3265.
As to “DDLYGAIKKLCCVQS [PIWL2, Piwi-like protein 2 peptide, target lysine 685]”, the “Relative methylation signal, Average” value worked out at 0.4271.
On to “EMSIGAIAIALEISL [HMCN1 K to A, target lysine to alanine control]”, for which the “Relative methylation signal, Average” value is recorded as 0.09371.
Consider “EMSIGAIKIALEISL [HMCN1, Hemicentin-1 peptide, target lysine 127]”, for which the “Relative methylation signal, Average” value was 0.3311.
For “GAIIGFIAVGYKKLF [ATAT K to A, target lysine to alanine control]” the value was 0.4571.
For “GAIIGFIKVGYKKLF [ATAT, Alpha-tubulin N-acetyltransferase 1 peptide, target lysine 98]”, the “Relative methylation signal, Average” value was found to be 0.7722.
Regarding “GHPFGYLAASTALNC [INT6 K to A, target lysine to alanine control]”, the “Relative methylation signal, Average” value stood at 0.2106.
Turning to “GHPFGYLKASTALNC [INT6, Integrator complex subunit 6 peptide, target lysine 369]”, the “Relative methylation signal, Average” value amounted to 0.398.
To “KAPRGFLARVFKRKK [CENPW K to A, target lysine to alanine control]” belongs 0.3763; to “KAPRGFLKRVFKRKK [CENPW, Centromere protein W peptide, target lysine 23]”, 0.677.
To “KDVIGAFAKVFACCS [O2T11 K to A, target lysine to alanine control]” belongs 0.2642; to “KDVIGAFKKVFACCS [O2T11, Olfactory receptor 2T11 peptide, target lysine 299]”, 0.408.
For “KRIYGGFASTAGKHP [HABP2 K to A, target lysine to alanine control]” the value was 0.2122.
KRIYGGFKSTAGKHP [HABP2]: the “Relative methylation signal, Average” value is 0.2413.
“LHNRGALALTTGKCV [SIA8D K to A, target lysine to alanine control]”: the “Relative methylation signal, Average” value is given as 0.2965.
For “LHNRGALKLTTGKCV [SIA8D, CMP-N-acetylneuraminate-poly-alpha-2,8-sialyltransferase peptide, target lysine 350]”, the “Relative methylation signal, Average” value came out at 0.4366.
In the case of “LICIGALAKLCNHPC [RA54B K to A, target lysine to alanine control]”, the “Relative methylation signal, Average” value worked out at 0.4423.
In the case of “LICIGALKKLCNHPC [RA54B, DNA repair and recombination protein RAD54B peptide, target lysine 589]”, the “Relative methylation signal, Average” value was 0.598.
Consider “LWKIGFFARPLKKKM [ITA1 K to A, target lysine to alanine control]”, for which the “Relative methylation signal, Average” value worked out at 0.403.
In the case of “LWKIGFFKRPLKKKM [ITA1, Integrin alpha-1 peptide, target lysine 1170]”, the “Relative methylation signal, Average” value worked out at 0.4107.
For the sequence “RRGIGYLALICFLIP [ANKAR K to A, target lysine to alanine control]”, the “Relative methylation signal, Average” value was found to be 0.01267.
“RRGIGYLKLICFLIP [ANKAR, Ankyrin and armadillo repeat-containing protein peptide, target lysine 317]”: the “Relative methylation signal, Average” value was found to be 0.4211.
Regarding “STCYGGIAKGVCVRP [FBN2 K to A, target lysine to alanine control]”, the “Relative methylation signal, Average” value is on record as 0.3693.
Turning to “STCYGGIKKGVCVRP [FBN2, Fibrillin-2 peptide, target lysine 711]”, the “Relative methylation signal, Average” value came out at 0.6873.
For “STCYGGYARGQCIKP [FBN1 K to A, target lysine to alanine control]”, the “Relative methylation signal, Average” value is reported as 0.2279.
To “TPPLGGYAVTAKCFG [HDAC9 K to A, target lysine to alanine control]” belongs 0.4627.
Take “TPPLGGYKVTAKCFG [HDAC9, Histone deacetylase 9 peptide, target lysine 927]”: the “Relative methylation signal, Average” value was 0.7696.
Take “YCLIGGVAMTRFICK [DLEC1 K to A, target lysine to alanine control]”: the “Relative methylation signal, Average” value came to 0.4812.
For “YCLIGGVKMTRFICK [DLEC1, Deleted in lung and esophageal cancer protein 1 peptide, target lysine 494]” the value was 0.8047; for “YGPFGYIANPYNIFD [CAC1G K to A, target lysine to alanine control]”, 0.03839; for “YGPFGYIKNPYNIFD [CAC1G, Voltage-dependent T-type calcium channel subunit alpha-1G peptide, target lysine 804]”, 0.9453.
